# Assays:
# [1] = target: Myosin light chain kinase 2, skeletal/cardiac muscle (Homo sapiens) (UniProt Q9H1R3); experiment: Inhibition of MYLK2 at 1 uM
# [2] = target: Serine/threonine-protein kinase Chk2 (Homo sapiens) (UniProt O96017); experiment: Inhibition of CHEK2 at 1 uM
# [3] = target: Serine/threonine-protein kinase Chk2 (Homo sapiens) (UniProt O96017); experiment: Inhibition of CHEK2 at 10 uM
# [4] = target: Serine/threonine-protein kinase pim-2 (Homo sapiens) (UniProt Q9P1W9); experiment: Inhibition of PIM2 at 10 uM
# [5] = target: Inhibitor of nuclear factor kappa-B kinase subunit epsilon (Homo sapiens) (UniProt Q14164); experiment: Inhibition of IKBKE at 10 uM
# [6] = target: Cyclin-dependent kinase 6 (Homo sapiens) (UniProt Q00534); experiment: Inhibition of CDK6 at 10 uM
# [7] = target: Tyrosine-protein kinase Lck (Homo sapiens) (UniProt P06239); experiment: Inhibition of LCK at 1 uM
# [8] = target: Mitogen-activated protein kinase 1 (Homo sapiens) (UniProt P28482); experiment: Inhibition of MAPK1 at 10 uM
# [9] = target: Tyrosine-protein kinase Lck (Homo sapiens) (UniProt P06239); experiment: Inhibition of LCK at 10 uM
# [10] = target: Proto-oncogene tyrosine-protein kinase Src (Homo sapiens) (UniProt P12931); experiment: Inhibition of SRC at 10 uM
# [11] = target: Mitogen-activated protein kinase kinase kinase 9 (Homo sapiens) (UniProt P80192); experiment: Inhibition of MAP3K9 at 1 uM
# CYP1A2 = target: T1, CYP1A2 (Homo sapiens, UniProt P05177); experiment: Inhibition of CYP1A2 at 3 uM by LC/MS/MS analysis; type: ADME
# T1 sequence (P05177 whole entry): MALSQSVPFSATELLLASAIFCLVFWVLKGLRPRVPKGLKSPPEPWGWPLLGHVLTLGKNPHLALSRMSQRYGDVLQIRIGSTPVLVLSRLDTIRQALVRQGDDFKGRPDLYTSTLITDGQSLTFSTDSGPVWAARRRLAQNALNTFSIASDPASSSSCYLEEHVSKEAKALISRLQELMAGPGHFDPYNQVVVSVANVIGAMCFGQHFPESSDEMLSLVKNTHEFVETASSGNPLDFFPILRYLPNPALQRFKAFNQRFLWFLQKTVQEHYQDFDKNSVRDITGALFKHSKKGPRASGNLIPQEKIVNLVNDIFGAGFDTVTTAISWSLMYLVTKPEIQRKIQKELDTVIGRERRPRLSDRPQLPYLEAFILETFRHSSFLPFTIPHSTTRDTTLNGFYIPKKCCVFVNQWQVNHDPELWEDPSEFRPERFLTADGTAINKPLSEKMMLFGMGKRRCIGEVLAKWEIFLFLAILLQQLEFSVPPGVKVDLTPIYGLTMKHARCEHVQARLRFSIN
# [12] = target: Myosin light chain kinase 2, skeletal/cardiac muscle (Homo sapiens) (UniProt Q9H1R3); experiment: Inhibition of MYLK2 at 10 uM
# [13] = target: Insulin receptor (Homo sapiens) (UniProt P06213); experiment: Inhibition of INSR at 1 uM
# [14] = target: Casein kinase II subunit alpha (Homo sapiens) (UniProt P68400); experiment: Inhibition of CSNK2A1 at 1 uM
# [15] = target: Protein kinase C beta type (Homo sapiens) (UniProt P05771); experiment: Inhibition of PRKCB at 10 uM
# [16] = target: Vascular endothelial growth factor receptor 2 (Homo sapiens) (UniProt P35968); experiment: Inhibition of KDR at 10 uM
# [17] = target: 3-phosphoinositide-dependent protein kinase 1 (Homo sapiens) (UniProt O15530); experiment: Inhibition of PDPK1 at 1 uM
# [18] = target: Insulin receptor (Homo sapiens) (UniProt P06213); experiment: Inhibition of INSR at 10 uM
# [19] = target: Tyrosine-protein kinase JAK3 (Homo sapiens) (UniProt P52333); experiment: Inhibition of JAK3 at 10 uM
# [20] = target: Serine/threonine-protein kinase TAO3 (Homo sapiens) (UniProt Q9H2K8); experiment: Inhibition of TAOK3 at 10 uM
# [21] = target: Serine/threonine-protein kinase Nek2 (Homo sapiens) (UniProt P51955); experiment: Inhibition of NEK2 at 10 uM
# [22] = target: 3-phosphoinositide-dependent protein kinase 1 (Homo sapiens) (UniProt O15530); experiment: Inhibition of PDPK1 at 10 uM
# [23] = target: Protein kinase C beta type (Homo sapiens) (UniProt P05771); experiment: Inhibition of PRKCB at 1 uM
# [24] = target: Rho-associated protein kinase 1 (Homo sapiens) (UniProt Q13464); experiment: Inhibition of ROCK1 at 1 uM
# [25] = target: Serine/threonine-protein kinase PAK 4 (Homo sapiens) (UniProt O96013); experiment: Inhibition of PAK4 at 10 uM
# [26] = target: Ephrin type-A receptor 2 (Homo sapiens) (UniProt P29317); experiment: Inhibition of EPHA2 at 1 uM
# [27] = target: Voltage-gated inwardly rectifying potassium channel KCNH2 (Homo sapiens, UniProt Q12809); experiment: Displacement of labeled dofetilide from human ERG
# [28] = target: Inhibitor of nuclear factor kappa-B kinase subunit beta (Homo sapiens) (UniProt O14920); experiment: Inhibition of IKBKB at 1 uM
# [29] = target: Serine/threonine-protein kinase Sgk1 (Homo sapiens) (UniProt O00141); experiment: Inhibition of SGK1 at 1 uM
# [30] = target: High affinity nerve growth factor receptor (Homo sapiens) (UniProt P04629); experiment: Inhibition of NTRK1 at 10 uM
# [31] = target: Tyrosine-protein kinase ABL1 (Homo sapiens) (UniProt P00519); experiment: Inhibition of ABL1 at 1 uM
# [32] = target: Mitogen-activated protein kinase 14 (Homo sapiens) (UniProt Q16539); experiment: Inhibition of MAPK14 at 1 uM
# [33] = target: Hepatocyte growth factor receptor (Homo sapiens) (UniProt P08581); experiment: Inhibition of MET at 10 uM
# [34] = target: Cyclin-dependent kinase 6 (Homo sapiens) (UniProt Q00534); experiment: Inhibition of CDK6 at 1 uM
# [35] = target: Casein kinase I isoform delta (Homo sapiens) (UniProt P48730); experiment: Inhibition of CSNK1D at 1 uM
# [36] = target: Fibroblast growth factor receptor 1 (Homo sapiens) (UniProt P11362); experiment: Inhibition of FGFR1 at 1 uM
# [37] = target: Fibroblast growth factor receptor 1 (Homo sapiens) (UniProt P11362); experiment: Inhibition of FGFR1 at 10 uM
# Chain of Serine/threonine-protein kinase Chk2 (Homo sapiens) (O96017 whole entry): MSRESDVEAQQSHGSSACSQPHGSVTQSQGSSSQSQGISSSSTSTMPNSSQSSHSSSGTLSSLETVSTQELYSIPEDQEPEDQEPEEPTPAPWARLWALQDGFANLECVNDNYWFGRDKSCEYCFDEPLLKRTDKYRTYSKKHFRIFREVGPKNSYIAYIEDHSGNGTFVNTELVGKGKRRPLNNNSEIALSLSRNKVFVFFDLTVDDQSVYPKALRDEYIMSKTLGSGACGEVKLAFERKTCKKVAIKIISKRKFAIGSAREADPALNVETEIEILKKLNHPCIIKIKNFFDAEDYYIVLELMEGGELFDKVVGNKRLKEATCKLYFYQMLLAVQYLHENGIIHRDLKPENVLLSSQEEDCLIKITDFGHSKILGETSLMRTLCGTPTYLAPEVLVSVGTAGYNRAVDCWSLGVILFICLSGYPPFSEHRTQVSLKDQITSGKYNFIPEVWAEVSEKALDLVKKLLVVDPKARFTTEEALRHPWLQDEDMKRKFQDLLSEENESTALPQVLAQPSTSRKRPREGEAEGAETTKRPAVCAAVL
# Chain of 3-phosphoinositide-dependent protein kinase 1 (Homo sapiens) (O15530 whole entry): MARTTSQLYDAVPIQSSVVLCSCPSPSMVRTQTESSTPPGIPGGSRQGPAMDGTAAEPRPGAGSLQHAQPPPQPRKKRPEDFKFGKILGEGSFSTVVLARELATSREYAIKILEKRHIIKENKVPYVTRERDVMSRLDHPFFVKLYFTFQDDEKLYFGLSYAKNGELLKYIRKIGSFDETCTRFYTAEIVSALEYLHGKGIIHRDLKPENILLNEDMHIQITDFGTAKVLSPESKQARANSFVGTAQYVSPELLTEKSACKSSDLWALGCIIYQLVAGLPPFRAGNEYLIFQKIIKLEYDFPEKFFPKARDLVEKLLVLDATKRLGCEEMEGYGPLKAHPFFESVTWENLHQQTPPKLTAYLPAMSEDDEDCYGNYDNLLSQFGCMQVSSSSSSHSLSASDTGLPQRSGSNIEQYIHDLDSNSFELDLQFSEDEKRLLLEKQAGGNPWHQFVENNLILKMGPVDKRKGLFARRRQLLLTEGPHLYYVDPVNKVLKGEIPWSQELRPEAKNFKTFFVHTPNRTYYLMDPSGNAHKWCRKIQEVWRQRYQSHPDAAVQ
# Chain of Insulin receptor (Homo sapiens) (P06213 28-758 limits assumed): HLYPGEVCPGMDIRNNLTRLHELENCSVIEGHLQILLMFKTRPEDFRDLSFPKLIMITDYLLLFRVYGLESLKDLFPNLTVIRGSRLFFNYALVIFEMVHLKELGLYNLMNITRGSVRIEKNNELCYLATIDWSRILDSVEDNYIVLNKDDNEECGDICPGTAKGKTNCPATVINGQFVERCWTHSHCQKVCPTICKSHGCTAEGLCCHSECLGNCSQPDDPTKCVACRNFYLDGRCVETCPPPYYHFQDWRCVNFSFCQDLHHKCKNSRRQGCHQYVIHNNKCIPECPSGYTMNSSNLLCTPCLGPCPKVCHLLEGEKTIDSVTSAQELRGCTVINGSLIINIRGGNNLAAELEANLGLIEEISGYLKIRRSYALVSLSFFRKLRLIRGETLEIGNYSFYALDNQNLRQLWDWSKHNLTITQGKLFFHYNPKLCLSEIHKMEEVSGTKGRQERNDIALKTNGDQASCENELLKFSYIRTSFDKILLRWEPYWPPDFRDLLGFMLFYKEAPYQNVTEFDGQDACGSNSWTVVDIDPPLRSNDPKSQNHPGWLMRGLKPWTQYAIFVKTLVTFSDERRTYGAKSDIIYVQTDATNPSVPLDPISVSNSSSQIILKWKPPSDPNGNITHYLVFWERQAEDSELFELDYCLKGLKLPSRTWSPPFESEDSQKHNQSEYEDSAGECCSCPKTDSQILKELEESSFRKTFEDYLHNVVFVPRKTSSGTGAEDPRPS
# Chain of Insulin receptor (Homo sapiens) (P06213 763-1382 limits assumed): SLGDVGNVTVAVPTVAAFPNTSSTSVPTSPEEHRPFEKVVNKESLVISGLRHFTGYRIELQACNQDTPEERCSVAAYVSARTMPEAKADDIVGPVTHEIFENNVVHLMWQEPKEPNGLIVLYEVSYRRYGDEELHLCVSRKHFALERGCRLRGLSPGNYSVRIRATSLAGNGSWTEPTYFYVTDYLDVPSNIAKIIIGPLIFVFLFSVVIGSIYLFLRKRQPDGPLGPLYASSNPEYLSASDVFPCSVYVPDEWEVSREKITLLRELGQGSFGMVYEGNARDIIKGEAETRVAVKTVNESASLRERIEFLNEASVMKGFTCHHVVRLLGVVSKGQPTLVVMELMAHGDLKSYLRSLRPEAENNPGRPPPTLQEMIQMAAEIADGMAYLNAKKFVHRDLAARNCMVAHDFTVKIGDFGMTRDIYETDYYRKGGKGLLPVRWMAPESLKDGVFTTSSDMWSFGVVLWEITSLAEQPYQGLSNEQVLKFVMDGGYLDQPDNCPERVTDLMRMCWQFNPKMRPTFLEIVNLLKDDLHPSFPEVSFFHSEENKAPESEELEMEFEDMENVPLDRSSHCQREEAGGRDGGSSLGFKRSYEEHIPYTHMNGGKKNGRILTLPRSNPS
# Chain of Cyclin-dependent kinase 6 (Homo sapiens) (Q00534 whole entry, canonical isoform): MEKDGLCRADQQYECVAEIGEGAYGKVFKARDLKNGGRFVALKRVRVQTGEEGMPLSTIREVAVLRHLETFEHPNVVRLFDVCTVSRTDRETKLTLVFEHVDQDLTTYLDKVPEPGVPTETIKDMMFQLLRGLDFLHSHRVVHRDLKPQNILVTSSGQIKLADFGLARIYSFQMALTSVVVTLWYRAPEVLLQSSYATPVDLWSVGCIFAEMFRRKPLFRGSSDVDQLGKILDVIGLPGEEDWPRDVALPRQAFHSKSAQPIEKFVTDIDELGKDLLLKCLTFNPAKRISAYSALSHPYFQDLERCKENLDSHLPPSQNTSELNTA
# Chain of Fibroblast growth factor receptor 1 (Homo sapiens) (P11362 22-822 limits assumed): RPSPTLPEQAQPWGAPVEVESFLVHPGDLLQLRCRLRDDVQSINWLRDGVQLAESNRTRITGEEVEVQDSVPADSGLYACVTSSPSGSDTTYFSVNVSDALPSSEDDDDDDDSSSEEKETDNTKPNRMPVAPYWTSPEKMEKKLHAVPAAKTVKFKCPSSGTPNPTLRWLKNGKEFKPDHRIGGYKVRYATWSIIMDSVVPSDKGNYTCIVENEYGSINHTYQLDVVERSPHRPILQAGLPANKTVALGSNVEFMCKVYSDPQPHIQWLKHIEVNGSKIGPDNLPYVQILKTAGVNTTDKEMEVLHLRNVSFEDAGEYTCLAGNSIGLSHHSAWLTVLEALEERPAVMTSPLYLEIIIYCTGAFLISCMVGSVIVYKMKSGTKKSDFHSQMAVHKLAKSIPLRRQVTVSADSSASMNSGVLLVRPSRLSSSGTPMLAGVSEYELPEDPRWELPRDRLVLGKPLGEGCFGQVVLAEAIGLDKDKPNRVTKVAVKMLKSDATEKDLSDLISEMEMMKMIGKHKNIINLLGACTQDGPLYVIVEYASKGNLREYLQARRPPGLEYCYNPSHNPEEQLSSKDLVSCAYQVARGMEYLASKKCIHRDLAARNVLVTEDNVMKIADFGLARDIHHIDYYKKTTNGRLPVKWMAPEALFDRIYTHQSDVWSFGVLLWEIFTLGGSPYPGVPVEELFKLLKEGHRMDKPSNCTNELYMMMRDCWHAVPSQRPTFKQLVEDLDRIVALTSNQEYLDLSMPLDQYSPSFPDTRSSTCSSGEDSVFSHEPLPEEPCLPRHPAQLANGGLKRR
# Chain of Tyrosine-protein kinase Lck (Homo sapiens) (P06239 2-509 limits assumed): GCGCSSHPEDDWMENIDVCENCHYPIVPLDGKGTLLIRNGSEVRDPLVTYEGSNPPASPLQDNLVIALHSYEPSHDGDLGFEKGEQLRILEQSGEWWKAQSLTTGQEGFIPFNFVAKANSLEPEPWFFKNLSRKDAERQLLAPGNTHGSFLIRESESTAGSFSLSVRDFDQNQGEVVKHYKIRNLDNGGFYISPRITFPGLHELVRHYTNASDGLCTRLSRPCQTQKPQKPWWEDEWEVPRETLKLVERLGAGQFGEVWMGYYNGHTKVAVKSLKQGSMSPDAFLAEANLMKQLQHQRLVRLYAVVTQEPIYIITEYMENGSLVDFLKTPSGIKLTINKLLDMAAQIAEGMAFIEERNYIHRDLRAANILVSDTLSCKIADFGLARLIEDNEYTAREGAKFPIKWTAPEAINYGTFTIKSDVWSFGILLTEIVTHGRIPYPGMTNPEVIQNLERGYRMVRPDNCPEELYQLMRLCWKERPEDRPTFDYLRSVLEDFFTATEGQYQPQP
# Chain of Protein kinase C beta type (Homo sapiens) (P05771 2-671 limits assumed): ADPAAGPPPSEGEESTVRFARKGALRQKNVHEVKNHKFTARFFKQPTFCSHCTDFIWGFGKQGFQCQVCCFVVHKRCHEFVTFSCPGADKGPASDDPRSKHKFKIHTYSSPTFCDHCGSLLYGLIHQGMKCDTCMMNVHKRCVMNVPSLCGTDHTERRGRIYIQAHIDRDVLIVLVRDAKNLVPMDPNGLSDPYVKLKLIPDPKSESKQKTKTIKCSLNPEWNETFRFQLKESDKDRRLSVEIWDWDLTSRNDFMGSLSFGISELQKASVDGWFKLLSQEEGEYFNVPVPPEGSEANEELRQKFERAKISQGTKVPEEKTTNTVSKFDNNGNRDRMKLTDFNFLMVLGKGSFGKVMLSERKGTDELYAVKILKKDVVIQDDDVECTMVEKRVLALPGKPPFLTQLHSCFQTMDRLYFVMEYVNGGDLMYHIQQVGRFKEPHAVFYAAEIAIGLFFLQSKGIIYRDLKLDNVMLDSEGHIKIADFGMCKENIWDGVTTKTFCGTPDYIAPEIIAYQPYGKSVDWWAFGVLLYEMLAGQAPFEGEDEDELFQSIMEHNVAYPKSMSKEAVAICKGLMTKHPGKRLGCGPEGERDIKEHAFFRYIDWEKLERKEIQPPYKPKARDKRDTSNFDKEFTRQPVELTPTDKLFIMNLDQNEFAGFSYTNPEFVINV
structure (smiles),measurement,setting,value
CC(C)(C)c1cc(C(=O)O)c(NC(=O)Nc2ccc3[nH]ncc3c2)s1,inhibition,[1],10%
same,inhibition,[2],20%
same,inhibition,[3],20%
same,inhibition,[4],0%
same,inhibition,[5],10%
same,inhibition,[6],0%
same,inhibition,[7],0%
same,inhibition,[8],10%
same,inhibition,[9],0%
same,inhibition,[10],0%
same,inhibition,[11],20%
same,inhibition at 3 µM,CYP1A2,6%
same,inhibition,[12],10%
same,inhibition,[13],0%
same,inhibition,[14],30%
same,inhibition,[15],10%
same,inhibition,[16],0%
same,inhibition,[17],20%
same,inhibition,[18],0%
same,inhibition,[19],40%
same,inhibition,[20],10%
same,inhibition,[21],10%
same,inhibition,[22],20%
same,inhibition,[23],10%
same,inhibition,[24],10%
same,inhibition,[25],0%
same,inhibition,[26],10%
same,inhibition (INH),[27],0%
same,inhibition,[28],10%
same,inhibition,[29],0%
same,inhibition,[30],10%
same,inhibition,[31],0%
same,inhibition,[32],10%
same,inhibition,[33],0%
same,inhibition,[34],0%
same,inhibition,[35],20%
same,inhibition,[36],0%
same,inhibition,[37],0%

# Source: ChEMBL document CHEMBL1641460, “Potent and selective thiophene urea-templated inhibitors of S6K” (Bioorg Med Chem Lett, 2011)
